Converted amounts (≈) assume the structure as drawn.

For the series the following is noted: buffer; pH 7.4; 200.0 µM.
Broadly, the solubility (kinetic) is solubility judged after dilution from a stock solution rather than from solid. Molecule `COc1ccc(Cl)cc1NC(=O)CN(C)C(=O)c1cccc(S(=O)(=O)N2CCN(C)CC2)c1` displayed a solubility (kinetic) of 67.4 µg/mL (≈ 136 µM).
To `CCN(C(=O)CSc1ncccn1)c1cccc2ccccc12` belongs greater than 48.5 µg/mL; to `Cc1ccc(Nc2nc(C)cc(C)c2C(N)=O)c(C)c1`, greater than 40.4 µg/mL.
To `Cl.Cn1cccc1CNCC(O)c1ccccc1` (configuration not stated) belongs greater than 40 µg/mL; to `CCC(=O)N(CCC1(c2ccccc2OC)CCOC(C(C)C)C1)Cc1ccco1` (configuration not stated), 21.4 µg/mL (≈ 51.7 µM).
The figure for `NC(=O)C1CCN(C(=O)Nc2csc3ccccc23)CC1` is 42 µg/mL (≈ 138 µM); for `CCN(CC(=O)NCc1ccc(F)cc1)S(=O)(=O)c1ccc(Cl)s1` it is 10.5 µg/mL (≈ 26.9 µM).
Molecule `Br.Fc1ccccc1CNCC1CCCO1` (configuration not stated) displayed a solubility (kinetic) of 43.1 µg/mL.
Regarding `CC(=O)c1ccc(-c2ccc(C(=O)NCC(c3ccco3)N(C)C)o2)cc1` (configuration not stated), the solubility (kinetic) is greater than 55 µg/mL.
The figure for `O=c1cc(CCl)nc2scc(-c3ccccc3)n12` is greater than 41.5 µg/mL.
The figure for `O=C(c1cc(Cl)nc2ccccc12)N1CCc2ccccc2C1` is 34.5 µg/mL (≈ 107 µM).
`O=C(Nc1ccccc1)c1ccccc1NC(=O)c1ccccc1[N+](=O)[O-]` came in with a solubility (kinetic) of 7.5 µg/mL (≈ 20.8 µM).
The figure for `O=S(=O)(c1cccc(-c2n[nH]c(=S)n2-c2ccccc2Cl)c1)N1CCOCC1` is greater than 65.5 µg/mL; for `Cc1ccccc1NC(=O)NCC1CCN(C(=O)OC(C)(C)C)CC1` it is greater than 52.1 µg/mL.
The figure for `Cc1nc(NC(=O)c2cnccn2)ccc1Br` is 7.8 µg/mL (≈ 26.6 µM); for `Cc1[nH]n2cnnc2c(=O)c1Br.O=S(=O)(O)O` it is greater than 49.1 µg/mL.
The figure for `CN(C1(C)CCS(=O)(=O)C1)S(=O)(=O)c1cccc([N+](=O)[O-])c1` (configuration not stated) is greater than 52.3 µg/mL; for `CCCN1C(=O)c2ccc(C(=O)Nc3ccccc3C(=O)O)cc2C1=O` it is greater than 52.9 µg/mL; for `COc1ccc(NC(=O)Nc2nc(C)cc(C)n2)c(OC)c1` it is greater than 45.3 µg/mL.
`Cn1c(N2CCOCC2)c(C=O)c2ccccc21` came in with a solubility (kinetic) greater than 36.6 µg/mL.
`CCOC(=O)N1CCN(S(=O)(=O)c2ccc([N+](=O)[O-])cc2)CC1` showed a kinetic solubility of 36.9 µg/mL (≈ 107 µM).
To `CC(CN1CCOCC1)OC(=O)c1ccc(C(C)(C)C)cc1.Cl` (configuration not stated) belongs 18.2 µg/mL; to `CCC(NC(=O)c1cncc(Br)c1)c1ccccc1` (configuration not stated), greater than 47.9 µg/mL.
The figure for `Cc1ccc(S(=O)(=O)N2CCC(C)CC2)cc1` is 28.6 µg/mL (≈ 113 µM); for `Cc1onc(-c2ccccc2)c1CNS(=O)(=O)c1cccc(Cl)c1` it is 36.5 µg/mL (≈ 101 µM).
The molecule `Cc1cc(C(C)(C)C)cc(C)c1S(=O)(=O)N1CC(=O)Nc2ccccc21` gave a kinetic solubility of 5.7 µg/mL (≈ 15.3 µM).
The figure for `COc1cc([N+](=O)[O-])ccc1NC(=S)N1CCOCC1` is greater than 44.6 µg/mL; for `CCCCCCCCC1CC(C(=O)Nc2ccccc2)C(=O)O1` (configuration not stated) it is less than 0.7 µg/mL.
To `COc1ccc(NC(=O)COC(=O)c2cccn2C)cc1S(=O)(=O)N1CCCCC1` belongs 32.6 µg/mL (≈ 74.9 µM); to `Nc1nnc(SCC(=O)Nc2cccnc2Cl)s1`, greater than 45.3 µg/mL; to `Nc1nc(COC(=O)c2ccc3c(c2)OCCO3)nc(Nc2ccccc2)n1`, 3.9 µg/mL (≈ 10.3 µM).
To `N#Cc1ccccc1OCC(=O)OCC(=O)NC1CCS(=O)(=O)C1` (configuration not stated) belongs greater than 52.9 µg/mL; to `CCc1ccc(-c2cnc3nc[nH]c(=O)c3n2)cc1`, greater than 37.8 µg/mL.
The molecule `Cc1ccc(NC(=O)C2CC(=O)N(C(C)c3ccccc3)C2)cc1` (configuration not stated) displayed a kinetic solubility greater than 48.4 µg/mL.
The figure for `CC(=O)c1c(Nc2cccc(F)c2)oc(C)cc1=O` is 31.3 µg/mL (≈ 120 µM).
To `O=C(O)CC1(CC(=O)Nc2ccc3c(c2)C(=O)OC3)CCCCC1` belongs greater than 49.7 µg/mL; to `CCn1c(=S)[nH]c2cc(Cl)ccc21`, greater than 31.9 µg/mL.
To `COc1ccccc1OC(C)C(=O)N1CCc2ccccc21` (configuration not stated) belongs 3.3 µg/mL (≈ 11.1 µM).
With `O=C(Nc1nc(-c2ccc(Cl)s2)cs1)c1ccco1`, the kinetic solubility stood at 9.2 µg/mL (≈ 29.6 µM).
For the molecule `O=C(NC1CC1)c1cc(=S)[nH]c2ccccc12`, the solubility (kinetic) was greater than 36.6 µg/mL.
The figure for `CCCCNC1c2ccccc2C(=O)N1Cc1ccccc1.Cl` (configuration not stated) is 47.5 µg/mL; for `O=S(=O)(c1ccc(N2CCCC2)nc1)N1CCCC1` it is 36.4 µg/mL (≈ 129 µM); for `O=C(Nc1ccccn1)c1sc2cc([N+](=O)[O-])ccc2c1Cl` it is 1.7 µg/mL (≈ 5.09 µM).
To `Cc1nn(C)cc1S(=O)(=O)Nc1ccc(F)c(F)c1` belongs greater than 43.1 µg/mL.
The figure for `Cc1ccccc1C(=O)N1CCC(C(=O)NC2CCCCCC2)CC1` is 48.6 µg/mL (≈ 142 µM); for `CC(=O)Oc1ccc(/C=C/c2nc3ccccc3c(=O)o2)cc1` it is less than 0.7 µg/mL; for `CSc1ccccc1C(=O)Nc1nc2ccccc2[nH]1` it is 3.1 µg/mL (≈ 10.9 µM).
`CN(C)CC#CCn1c2ccccc2c2ccccc21.Cl` came in with a kinetic solubility greater than 44.8 µg/mL.
The figure for `S=C(NCc1ccccc1)Nc1cccc2cnccc12` is greater than 44 µg/mL; for `Cc1ccc(-c2cnc(-c3ccccc3C(=O)O)o2)cc1` it is 35.2 µg/mL (≈ 126 µM); for `CCOc1ccc(N2CC(C(=O)NC3CCCC3)CC2=O)cc1` (configuration not stated) it is greater than 47.5 µg/mL.
The figure for `Cc1cc(NC(=O)C(Cl)c2ccccc2)no1` (configuration not stated) is greater than 37.6 µg/mL.

Values taken from PubChem BioAssay AID1996.
